In patent US20130011845A1, “MICRORNA REGULATING THE INSULIN SIGNALING PATHWAY, AND METHOD FOR SCREENING MATERIAL FOR CONTROLLING THE ACTION OF A TARGET THEREOF” (SNU R & DB Foundation, priority 2009, published 2013):

Legend:
[1] = tested on: ERBB2IP 3′UTR; test: dual-luciferase 3′UTR reporter assay, pAC-ERBB2IP; format: cell-based; conditions: luciferase reporter with ERBB2IP 3′UTR, human Hela cell lines; average of at least two independent experiments
Protocol: (§1) In order to determine whether the target genes identified in Example 7 are in actuality targets of miR-8 and miR-200 family miRNAs, the inventors performed cloning. In other words, […] containing the miRNA target sites. Specifically, in order to obtain cDNAs of respective target genes, from drosophila S2 cell lines or human Hela cell lines, total RNA was extracted by using RNeasy mini kit (QIAGEN, US). 1 μg of total RNA and 1 μl of Oligo-dT (Invitrogen, US) were charged with up to 50 μl of distilled water, and placed into SuperScript First-Strand Synthesis System (Invitrogen, US), followed by RT-PCR reaction. Through the reaction at 65° C. for 6 min, at 4° C. for 5 min, at 42° C. for 60 min, at 95° C. for 5 min, and at 4° C. for 5 min, cDNA was synthesized. By using the cDNA (3˜5 μg) as template, and using a primer pair on respective genes noted in Table 3 and PCR Mastermix (Promega, US), PCR was performed on 3′UTR of ush, Lap1, CG8445, dbo, Lar, Ced-12, CG12333, cbt, FOG2, SEPT7, RIN2, SHC1, HOXB5, LF11, TCF7L1, ERBB21P, ELMO2, BAP1, WDR37, KLHL20, PTPRD, RASSF2 and VAC14 from among the target genes selected in Example 7. Herein, PCRP on atro as a drosophila control gene was also performed. After the reaction was completed, the PCR product on each gene's 3′UTR region was cleaved by each of the following restriction enzymes:
(§2) Then, it was cloned into pAC5.1 luciferase vector (a kind gift of Elisa Izaurralde) cleaved by the same restriction enzymes so as to produce a reporter plasmid having a miR-8 or miR-200 family target sequence in luciferase gene's 3′UTR sequence.
(§3) Reporter plasmids and renilla luciferase expression vectors (Promega, US), as noted in Table 4, and miRNAs of miR-200 family of miR-141, miR-200a (hsa-miR-200a, SEQ ID: 87: 5′-[…]-3′), miR-200b, miR-200c (has-miR-200c, SEQ ID: 88: 5′-[…]-3′) and miR-429, and miR-8 (dme-miR-8, SEQ ID: 89: 5′-[…]-3′) were bought from Samchonri and cotransfected into drosophila S2 cell lines or human Hela cell lines. Then, the activities of luciferase were measured through dual-luciferase assay (Promega, US) by a luminometer (Biorad). Then, 7 gene pairs that respond both to miR-8 and to mir-200 family miRNAs in Drosophila and human cells, respectively were identified (see FIG. 15).

[2] = tested on: MCF-7 cell lines; test: cell proliferation by counting the number of cells; format: cell-based, human; conditions: MCF-7 cell lines transduced; counted on day 1, 4, 5, 6, 7 and 8; compared to untreated or siGFP cells
From the text: It has been known that when human miRNAs, that is, miR-200 family (miR-200a, miR-200b, miR-200c, miR-141, and miR-429) are transduced into human cell lines, cell growth is promoted (Park, S Y et al., 2009, Nat Struct Mol Biol 16, 23-29). In MCF-7 cell lines not treated with anything, and MCF-7 cell lines transduced with siRNA targeting GFP (siGFP, SEQ ID: 1: 5′-UGAAUUAGAUGGCGAUGUU-3′, Samchonri), miR-200 family [miR-141(has-miR-141, SEQ ID: 2: 5′-[…]-3′), miR-200b (has-miR-200b, SEQ ID: 3: 5′-[…]-3′), miR-429(has-miR-429, SEQ ID: 4: 5′-[…]-3′)] and miR-29b (known to inhibit cell proliferation), on day 1, 4, 5, 6, 7 and 8, the inventors counted the number of cells and measured cell proliferation.

[3] = tested on: WDR37 3′UTR; test: dual-luciferase 3′UTR reporter assay, pAC-WDR37; format: cell-based; conditions: luciferase reporter with WDR37 3′UTR, human Hela cell lines; average of at least two independent experiments
Protocol: as §1, §2, §3

[4] = tested on: Hep3B cells; test: MTT cellular viability assay; format: cell-based, human; conditions: Hep3B cells transfected with 30 nM
Protocol: Because stimulation of PI3K and Akt is known to facilitate cell proliferation and antagonize apoptosis (Pollak, 2008), the inventors measured cellular viability with the MTT (3-(4,5-dimethylthiazol-2-yl)-2,5-diphenyltetrazolium bromide) assay in Hep3B cells. Specifically, Hep3B cells were plated in a 96-well plate, and transfected with 30 nM of synthesized siGFP, miR-141, miR-200a, miR-200b, miR-200c, miR-429 or siFOG2. Then, to the plate, 50 μl of MTT solution (2 mg/ml) (Promega, US) was added per each well, followed by culturing at 37 °C for 1 hour. Then, each well was added with 150 μl of DMSO, and measured by a microplate reader (Bio-rad, US) at a wavelength of 590 nm. Also, Hep3B cells were transfected with 200 nM of luciferase, or 200 nM of oligonucleotides having complementary sequences to miR-141, miR-200a, miR-200b, miR-200c or miR-429, and then were subjected to MTT assay in the same manner as described above.

[5] = tested on: HOXB5 3′UTR; test: dual-luciferase 3′UTR reporter assay, pAC-HOXB5; format: cell-based; conditions: luciferase reporter with HOXB5 3′UTR, human Hela cell lines; average of at least two independent experiments
Protocol: as §1, §2, §3

[6] = tested on: BAP1 3′UTR; test: dual-luciferase 3′UTR reporter assay, pAC-BAP1; format: cell-based; conditions: luciferase reporter with BAP1 3′UTR, human Hela cell lines; average of at least two independent experiments
Protocol: as §1, §2, §3

[7] = tested on: ELMO2 3′UTR; test: dual-luciferase 3′UTR reporter assay, pAC-ELMO2; format: cell-based; conditions: luciferase reporter with ELMO2 3′UTR, human Hela cell lines; average of at least two independent experiments
Protocol: as §1, §2, §3

[8] = tested on: RASSF2 3′UTR; test: dual-luciferase 3′UTR reporter assay, pAC-RASSF2; format: cell-based; conditions: luciferase reporter with RASSF2 3′UTR, human Hela cell lines; average of at least two independent experiments
Protocol: as §1, §2, §3

[9] = tested on: KLHL20 3′UTR; test: dual-luciferase 3′UTR reporter assay, pAC-KLHL20; format: cell-based; conditions: luciferase reporter with KLHL20 3′UTR, human Hela cell lines; average of at least two independent experiments
Protocol: as §1, §2, §3

Substance	Represion fold, ERBB2IP [1]	cell proliferation (number of cells) [2]	Represion fold, WDR37 [3]	cell viability (MTT) [4]	Represion fold, HOXB5 [5]	Represion fold, BAP1 [6]	Represion fold, ELMO2 [7]	Represion fold, RASSF2 [8]	Represion fold, KLHL20 [9]
5′-UAACACUGUCUGGUAAAGAUGG-3′ (listed as RNA, chemistry not given here) [miR-141]	0.7 fold	increased cell proliferation	1.07 fold	increased cell viability	0.92 fold	0.84 fold	0.73 fold	0.90 fold	0.84 fold
5′-UAACACUGUCUGGUAACGAUGU-3′ (listed as RNA, chemistry not given here) [miR-200a]	1.18 fold	–	0.76 fold	increased cell viability	1.16 fold	1.04 fold	1.22 fold	1.36 fold	1.02 fold
5′-UAAUACUGCCUGGUAAUGAUGA-3′ (listed as RNA, chemistry not given here) [miR-200b]	0.57 fold	increased cell proliferation	1.16 fold	increased cell viability	0.73 fold	0.79 fold	1.04 fold	1.28 fold	0.85 fold
5′-UAAUACUGUCUGGUAAAACCGU-3′ (listed as RNA, chemistry not given here) [miR-429]	0.54 fold	increased cell proliferation	1.31 fold	increased cell viability	0.72 fold	0.67 fold	0.89 fold	1.01 fold	0.55 fold
